According to patent publication US8993565B2, “(6-oxo-1,6-dihydropyrimidin-2-yl)amide derivatives, preparation thereof and pharmaceutical use thereof as AKT(PKB) phosphorylation inhibitors” (Sanofi, priority 2009, dated 2015):

How the values were obtained:
[1] = system: AKT protein phosphorylated on serine 473 (pAKT-S473); assay: Study of pAKT expression in PC3 human prostate carcinoma cells measured by western blotting (Test A); format: cell-based; details: PC-3, inhibition of AKT phosphorylation (pAKT-S473), 1 to 2 hours incubation, absolute IC50, mean of two experiments
Description: The inhibitory activity of the molecules on AKT phosphorylation is measured either by western blotting using the technique described below, or by the MSD Multi-spot Biomarker detection technique from Meso Scale Discovery also described below.
Study of pAKT Expression in PC3 Human Prostate Carcinoma Cells Measured by Western Blotting (Test A):
On day 2, the cells are incubated in the presence or absence of the test products for 1 to 2 hours at 37° C. in the presence of 5% CO2. The molecules, diluted in dimethyl sulphoxide (DMSO Sigma #D2650), are added from a 10-times concentrated stock solution, the final percentage of DMSO being 0.1%. The molecules are tested either at a single concentration of less than or equal to 10 μM, or at increasing concentrations in a range that can extend from less than 1 nM to 10 μM.
After this incubation, the cells are lysed for the preparation of the proteins.
The lysate is centrifuged for 10 min at 6000 rpm. 155 μl of supernatant are recovered. 150 μl are incubated for denaturation for 5 min at 95° C. in the presence of 4× NuPAGE LDS Sample Buffer diluted 4-fold (InVitrogen ref NP0007) and of 10× NuPAGE Sample Reducing Agent diluted 10-fold (InVitrogen ref NP0009). These samples are then frozen at −20° C.
The gel is then transferred on to an Invitrolon PVDF membrane (Invitrogen #LC2007) permeabilised beforehand and for a few seconds in ethanol (Ethanol Fischer Scientific #E/0600DF/15).
The transfer is carried out in a Biorad tank at 30 volts overnight or at 60 volts for 3 hours, in the presence of 20× NUPAGE Transfer Buffer diluted 20-fold (InVitrogen ref NP0006).
The membrane is then saturated in saturating solution composed of TBS (10× Tris Buffered Saline, Sigma #T5912, diluted 10-fold), 0.1% Tween (Sigma #P5927) and 3% BSA (Bovine Albumin Serum Fraction V, Sigma #A4503) for 6 h after overnight transfer or else for 1 h after transfer for a period of 3 h.
Two rinses for min in washing solution composed of TBS and 0.1% Tween 20 are carried out before hybridisation of the secondary antibodies.
The secondary antibodies are diluted 110000th for the rabbit anti-Mouse IgG HRP antibody (W402 Promega) and to 110000th for the goat anti-Rabbit IgG HRP antibody (W401 Promega) in saturating solution, and then shaken for 1 h at ambient temperature.
Two rinses for 30 min in washing solution are carried out and then a rinse for 5 min in H2O is carried out in order to eliminate the remaining Tween 20.
The luminescence is read with the FujiFilm device (Ray Test).
The FUJI device measures the total luminescence signal obtained (AU) for each band selected. It then subtracts the background noise (BG) proportional to the size of the band selected (Area), said background noise being calculated from a specific background noise band, with a view to obtaining the specific signal (AU-BG) for each band. The band obtained in the absence of product and in the presence of 0.1% DMSO is considered to be the 100% signal. The software calculates the % specific activity (Ratio) obtained for each band selected as a function of this 100% signal. The percentage inhibition is calculated for each concentration according to the formula (100%−Ratio).
Two independent experiments make it possible to calculate the mean of the percentages of inhibition obtained at a given concentration for the products tested only at one concentration.
Two independent experiments make it possible to calculate the mean of the IC50s.

Structure (SMILES) | IC50 [1] [nM] | melting point [°C]
O=C(Cc1nc(N2CCOCC2)cc(=O)[nH]1)Nc1ccccc1O [Example 37, N-(2-hydroxyphenyl)-2-[4-(morpholin-4-yl)-6-oxo-1,6-dihydropyrimidin-2-yl]acetamide] | 10000 | > 260
CC(C)(C)OC(=O)NCCc1cccc(NC(=O)Cc2nc(N3CCOCC3)cc(=O)[nH]2)c1 [Example 46, 2-methylpropan-2-yl {2-[3-({[4-(morpholin-4-yl)-6-oxo-1,6-dihydropyrimidin-2-yl]acetyl}amino)phenyl]ethyl}-carbamate] | 2500 | 194
O=C(Cc1nc(N2CCOCC2)cc(=O)[nH]1)Nc1cccc(F)c1F [Example 12, N-(2,3-difluorophenyl)-2-[4-(morpholin-4-yl)-6-oxo-1,6-dihydropyrimidin-2-yl]acetamide] | 737 | 248

Second part, the compound after the results:

IC50 [1] [nM] | melting point [°C] | Structure (SMILES)
200 | 246 | O=C(Cc1nc(N2CCOCC2)cc(=O)[nH]1)Nc1cccc(C2CC2)c1 [Example 36, N-(3-cyclopropylephenyl)-2-[4-(morpholin-4-yl)-6-oxo-1,6-dihydropyrimidin-2-yl]acetamide]
10000 | > 260 | O=C(Cc1nc(N2CCOCC2)cc(=O)[nH]1)Nc1ccc(F)c(CO)c1 [Example 35, N-[4-fluoro-3-(hydroxymethyl)phenyl]-2-[4-(morpholin-4-yl)-6-oxo-1,6-dihydropyrimidin-2-yl]acetamide]
650 | 220 | COCc1cc(NC(=O)Cc2nc(N3CCOCC3)cc(=O)[nH]2)ccc1F [Example 73, N-[4-fluoro-3-(methoxymethyl)phenyl]-2-[4-(morpholin-4-yl)-6-oxo-1,6-dihydropyrimidin-2-yl]acetamide]
250 | 266 | Cn1c(CC(=O)Nc2cccc(Br)c2)nc(N2CCOCC2)cc1=O [Example 69, N-(3-bromophenyl)-2-[1-methyl-4-(morpholin-4-yl)-6-oxo-1,6-dihydropyrimidin-2-yl]acetamide]
